{
  "source": "patent US20230190870A1",
  "about": "“Method for Treating Lysosomal Storage Diseases with Histatin Peptides” (THE BOARD OF TRUSTEES OF THE UNIVERSITY OF ILLINOIS, priority 2020, published 2023)",
  "key": {"[1]": {"target": "T1, TMEM97 (S2R) containing HEK293T membranes (Homo sapiens, UniProt Q5BJF2)", "T1 construct": "expressed in transfected cells; host or cells: HEK293T (transient overexpression; membranes prepared by UNC PDSP)", "test": "Radioligand binding/competition assay with [3H]-DTG (UNC PDSP)", "conditions": "secondary radioligand binding assay; hot ligand [3H]-DTG"}, "TMEM97": {"target": "TMEM97 (Homo sapiens, UniProt Q5BJF2)", "sequence (Q5BJF2 whole entry, species assumed)": "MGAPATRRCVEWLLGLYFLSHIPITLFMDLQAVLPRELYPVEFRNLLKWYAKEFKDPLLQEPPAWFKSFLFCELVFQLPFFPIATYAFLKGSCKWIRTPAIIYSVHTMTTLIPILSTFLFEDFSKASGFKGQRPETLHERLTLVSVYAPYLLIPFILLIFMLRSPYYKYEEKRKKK", "test": "ELISA on plates coated with TMEM97", "assay_type": "binding", "method": "A co-immunoprecipitation (co-IP) assay was performed to determine if the interaction between Hst1 and TMEM97 was reproducible at the cellular level. […] These bands may represent monomeric and dimeric versions of Hst1 and are similar to what has been seen with western blot analyses of Hst1 containing samples. […] Enzyme-linked immunosorbent assay (ELISA) were also conducted to detect bound Hst1 on plates coated with TMEM97."}, "HCE cells": {"test_system": "HCE cells", "test": "Immunofluorescence imaging of internalization and localization", "assay_type": "cell-based, human", "method": "Immunofluorescence Imaging. HCE cells were seeded on glass coverslips (Fisher Scientific Co.; Pittsburgh, Pa.) within a 6-well plate at 3×10^5 (cells/well) seeding density. […] HCE cells were then fixed in 3.7% paraformaldehyde, permeabilized with phosphate-buffered saline (PBS) containing 0.2% TRITON™ X-100 for 5 minutes, and washed three times for 5 minutes each time in PBS. For blocking, cells were and incubated at room temperature for 30 minutes with 5% bovine serum albumin (BSA) and 5% normal goat serum in PBS. For the Endoplasmic Reticulum (ER) staining, a Cytopainter ER staining kit (Abcam; Cambridge, Mass.) was used, following the manufacturer's instructions. After washing with 1×Assay buffer, cells were incubated with Green Detection Reagent to cover the monolayer of cells. For the detection of Hst1 and TMEM97, mouse anti-Hst1 antibody (Abcam; Cambridge, Mass.), rabbit primary antibody against Hst1 (Mybiosource; San Diego, Calif.), and rabbit anti-TMEM97 antibody (Novus Bio.; Littleton, Colo.) were used. Cells were incubated overnight at 4° C. with primary antibodies, washed three times for 5 minutes each time in PBS before incubation with secondary antibodies for 30 minutes. Cells were then counterstained with 1 μg/mL 4′,6-diamidino-2-phenylindole (DAPI) solution in PBS for 3 minutes, then washed three times with PBS containing 0.05% TRITON™ X-100 for 5 minutes each time, twice with PBS for 5 minutes each time, and once with distilled water for 10 seconds. The cells were mounted in Fluoro gel with Tris buffer (Electron Microscopy Sciences; Hatfield, Pa.) and observed under a confocal microscope (Zeiss LSM 710 Confocal Microscope; Oberkochen, Germany) using a 40×objective. Fluorescent dye sold under the tradename ALEXA FLUOR® 488 NHS Ester (Molecular Probes; Carlsbad, Calif.) was used for making Alexa-488 coupled synthetic Hst1.\nTransfection/Knock-Down of TMEM97. Sub-confluent monolayers of HCE cells in grown in 35-mm six-well plates were transfected with reaction mixtures composed of 100 pmol of small interfering RNA (siRNA) to TMEM97 (Santa Cruz Biotechnology; Dallas, Tex.) for 48 hours and 5 μL of transfection reagent sold under the tradename LIPOFECTAMINE® 2000 (Invitrogen; Carlsbad, Calif.) in culture medium sold under the tradename OPTI-MEMO media (Gibco Life Technologies; Grand Island, N.Y.). Complexes were incubated for 20 minutes at 24° C. and then added to cells at 37° C. Incubation was continued for 24 to 48 hours at 37° C. in 5% CO2. Knock-down (KD) of TMEM97 was confirmed by western blot analysis using a rabbit anti-TMEM97 antibody (Novus Bio.; Littleton, Colo.). […]"}, "[2]": {"target": "T2, Synthetic TMEM97 (108-143) (Homo sapiens, UniProt Q5BJF2)", "T2 construct": "made in house; host or cells: chemical solid-phase synthesis (Fmoc, Wang resin)", "T2 sequence (Q5BJF2 108-143 limits assumed)": "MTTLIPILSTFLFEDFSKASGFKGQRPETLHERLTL", "test": "Surface plasmon resonance, immobilized synthetic TMEM97 (108-143)", "assay_type": "binding", "conditions": "SPR", "method": "Surface Plasmon Resonance (SPR). Recombinant full-length TMEM97 (also called MAC30, from HEK293 cells) and GST-TMEM97 (108-176, recombinant GST-C terminal from wheat germ) proteins were purchased from OriGene (Rockville, Md.) and Abnova (Taipei City, Taiwan), respectively. Three peptides, TMEM97 (108-176), TMEM97 (108-143) and TMEM97 (144-176), were synthesized. All proteins and peptides were initially prepared in HBS buffer containing 10 mM HEPES, pH 7.4, 150 mM NaCl, and 0.05% surfactant P20. The CM5 sensor surface was first activated by 1-ethyl-3-(3-dimethylaminopropyl) carbodiimide hydrochloride (EDC)/N-hydroxy succinimide (NHS) mixture using a Biacore T200 or Biacore 8K instrument (GE Healthcare). […] Flow channels 1 and 3 were used as references.\nThe three synthesized peptides were diluted to 50 μg/mL in 10 mM sodium acetate at pH 4.0 and immobilized to flow channels 2, 3 and 4, respectively, on another sensor chip. The unmodified surfaces on a flow channel 1 were used as a reference control. Histatin solutions with a series of increasing concentrations (0.78-25 μM at 2-fold dilution) were applied to all four channels at a 30 μL/minute flow rate at 25° C. The data were double-referenced with reference channel and zero concentration responses, and reference subtracted sensorgrams were fitted with 1 to 1 Langmuir kinetic model using a Biacore T200 evaluation software V3.0 or Insight evaluation software. The equilibrium dissociation constants ([…]) were determined from two rate constants (KD=kd/ka).\nTo determine more precisely which segment of TMEM97 is necessary for binding of Hst1, multiple synthetic fragments of TMEM97 were generated (Table 6) and binding to Hst1 was tested using SPR. […] Smaller fragments of the C-terminal of TMEM97 were then constructed to represent the (predicted) luminal (108-143) and cytoplasmic (144-176) exposed segments of the C-terminus of TMEM97 based on modeling experiments previously described. […] SPR results for Hst1 were confirmed using ITC as an orthogonal analytical method.\nTo determine the region(s) of Hst1 that mediate binding to TMEM97, SPR testing was performed with various Hst1 fragments and either recombinant TMEM97 (GST-tagged, wheat-germ derived, C-terminal fragment TMEM97 (108-176)) or synthesized TMEM97 (TMEM97 (108-176), TMEM97 (108-143) and TMEM97 (144-176))."}, "[3]": {"target": "T3, full-length recombinant TMEM97 (HEK293 cells) (Homo sapiens, UniProt Q5BJF2)", "T3 construct": "Recombinant full-length TMEM97 (also called MAC30, from HEK293 cells); purchased OriGene (Rockville, Md.); host or cells: HEK293 cells", "T3 sequence (Q5BJF2 whole entry)": "as the sequence (Q5BJF2 whole entry, species assumed) above", "test": "Surface plasmon resonance, immobilized full-length TMEM97", "assay_type": "binding"}},
  "note": "Square brackets hold non-standard residues; d marks the D form. Peptide text beside a SMILES is read from it. pS = N[C@@H](COP(=O)(O)O)C(=O)O",
  "data": [
    {"smiles": "CC(C)C[C@H](NC(=O)[C@H](Cc1ccc(O)cc1)NC(=O)[C@H](CC(N)=O)NC(=O)[C@H](CO)NC(=O)CNC(=O)[C@H](Cc1ccc(O)cc1)NC(=O)[C@H](CC(=O)O)NC(=O)CNC(=O)[C@H](Cc1ccc(O)cc1)NC(=O)[C@H](Cc1ccccc1)NC(=O)[C@@H]1CCCN1C(=O)[C@H](Cc1ccccc1)NC(=O)[C@H](CCC(=O)O)NC(=O)[C@H](CCCNC(=N)N)NC(=O)[C@H](Cc1c[nH]cn1)NC(=O)[C@H](CO)NC(=O)[C@H](Cc1c[nH]cn1)NC(=O)[C@H](Cc1c[nH]cn1)NC(=O)[C@H](CCCCN)NC(=O)[C@H](CCC(=O)O)NC(=O)[C@H](Cc1c[nH]cn1)NC(=O)[C@H](Cc1ccccc1)NC(=O)[C@H](CCCCN)NC(=O)[C@H](CCCNC(=N)N)NC(=O)[C@H](CCCNC(=N)N)NC(=O)[C@H](Cc1ccc(O)cc1)NC(=O)CNC(=O)[C@H](Cc1c[nH]cn1)NC(=O)[C@H](Cc1c[nH]cn1)NC(=O)[C@H](CCCNC(=N)N)NC(=O)[C@H](CCCCN)NC(=O)[C@H](CCC(=O)O)NC(=O)[C@H](Cc1c[nH]cn1)NC(=O)[C@H](COP(=O)(O)O)NC(=O)[C@@H](N)CC(=O)O)C(=O)N[C@@H](Cc1ccc(O)cc1)C(=O)N[C@@H](CC(=O)O)C(=O)N[C@@H](CC(N)=O)C(=O)O", "note": "[Hst1] (H-D[pS]HEKRHHGYRRKFHEKHHSHREFPFYGDYGSNYLYDN-OH; N-terminus and C-terminus assumed)", "values": [
      {"measurement": "Ki", "setting": "[1]", "value": 239, "unit": "nM"},
      {"measurement": "binding to TMEM97 in ELISA", "setting": "TMEM97", "value": "confirmed binding"},
      {"measurement": "effect of DTG on Hst1 binding in ELISA", "setting": "TMEM97; addition of 1,3-Di-o-tolylguanidine (DTG)", "value": "did not alter"},
      {"measurement": "co-immunolocalization with TMEM97", "setting": "HCE cells; exogenously applied Hst1", "value": "significant overlap"},
      {"measurement": "co-localization with endoplasmic reticulum stain", "setting": "HCE cells; exogenously applied Hst1", "value": "good co-localization"},
      {"measurement": "internalization and/or localization in TMEM97 KD cells", "setting": "HCE cells; siRNA knock-down of TMEM97", "value": "significantly disrupted internalization and/or localization"},
      {"measurement": "KD / binding", "setting": "[2]", "value": "unable to bind"},
      {"measurement": "KD / binding", "setting": "[2]; listed as Hst1(1-38)", "value": "No binding"},
      {"measurement": "% Rmax", "setting": "[3]; SPR", "value": 32, "unit": "%"},
      {"measurement": "Kd", "setting": "[3]; SPR, 25° C., 1 to 1 Langmuir kinetic model", "value": "1300 ± 300", "unit": "nM"},
      {"measurement": "effect of added DTG or haloperidol on Hst1 binding", "setting": "[3]; addition of either DTG or haloperidol", "value": "did not affect"}
    ]}
  ]
}
